{
  "source": "patent US20230331792A1",
  "about": "“NEW MULTI-FUNCTIONAL OLIGOPEPTIDES” (ENLITISA (SHANGHAI) PHARMACEUTICAL CO., LTD., priority 2019, published 2023)",
  "key": {"[1]": {"tested_on": "patient", "assay": "Radiation stomatitis, patient case", "type": "in vivo, human", "settings": "0.5 mg/mL solution as mouthwash", "protocol": "A patient was diagnosed with oral cancer and underwent radiation therapy.\nAfter 3 weeks, oral mucositis developed with ulcers on the mucous membrane lining the mouth, throat and esophagus. It was very painful and the patient was not able to eat.\nThe patient then used Compound B solution (0.5 mg/mL; prepared as described in Example 38 above) as a mouthwash, as frequently as needed."}, "[2]": {"tested_on": "patient", "assay": "Radiation injury in the nasal cavity, patient case", "type": "in vivo, human", "protocol": "A patient was diagnosed with paranasal sinus cancer and received radiation therapy. After two weeks treatment, they had inflammation of the nose and sinuses and felt like their nose was blocked or stuffy. The mucus in the nasal cavity and paranasal sinuses became thick and dry.\nThe patient used a nasal spray comprising Compound B (see Example 7 above) dissolved in water at a concentration of 0.5 mg/mL and then packed into a nasal spray bottle, once every two hours during daytime."}, "[3]": {"tested_on": "SD rats", "assay": "Experimental gastric ulcer model (anhydrous alcohol)", "type": "in vivo", "protocol": "SPF grade SD rats were used in this experiment, with 10 rats in each group. According to an evaluation method of health food for gastric ulcer issued by Chinese State Food and Drug Administration, the protective effect of Compound B on acute gastric ulcers induced by anhydrous alcohol was observed after continuous gavage for 30 days.\nOmeprazole enteric-coated capsules (20 mg/capsule; Heilongjiang Norgas Pharmaceutical Co., Ltd., China) were opened and the powder was dissolved in water to make a 2 mg/mL solution. Compound B (see Example 7 above) powder was dissolved in water to make two solutions with concentrations of 0.25 mg/mL and 0.75 mg/mL. Administration volumes were […].\nAll drugs were administrated as shown in Table 13 by oral gavage for 30 consecutive days, once per day. The rats had free access to water. On the 30th day, rats were fasted for 24 hours after the last drug administration. On the 31st day, 1.0 mL/rat of absolute ethanol was given by gavage to each rat in all of the experimental groups except the control group.\n1 hour later, all of the rats were sacrificed and dissected to expose the intact stomach, followed by ligation of the pylorus. 10% formaldehyde solution was administered into the stomach by perfusion and fixed for 20 minutes. The stomach was dissociated after fixation and cut open along the greater curvature. The stomach contents were washed off the lining with saline to reveal the gastric mucosa.\nThe length and width of gastric mucosal bleeding were measured with a Vernier calliper under a stereo microscope or by the naked eye."}, "[4]": {"tested_on": "person one", "assay": "Pain and bleeding after an operation, patient case", "type": "in vivo, human", "protocol": "Immediately after the operation, they used 0.5 mg/mL of Compound B spray (as described in Example 38 but packed into a normal spray bottle) to apply directly on the wound. The right pane in FIG. 10 was taken 1 hour after operation. […] The physician said that it would normally take a patient at least ten days to fully recover from such a procedure with standard care."}, "[5]": {"settings": "0.5 mg/mL spray directly on the wound, 1 hour after operation"}},
  "note": "Square brackets hold non-standard residues; d marks the D form. Ends that are not written are not given here. Dopa = N[C@@H](Cc1ccc(O)c(O)c1)C(=O)O; Hyp = O=C(O)[C@@H]1C[C@@H](O)CN1",
  "data": [
    {"substance": "{[(Ala-Lys-Pro-Ser-Tyr-Hyp-Hyp-Thr-DOPA-Lys)2-Lys]2-Lys}2-Lys (AKPSY[Hyp][Hyp]T[Dopa]KKKK; also: branched lysine dendrimer {[(peptide)2-Lys]2-Lys}2-Lys) [Compound B]", "values": [
      {"measurement": "course of stomatitis during continued therapy", "setting": "[1]", "result": "stomatitis did not worsen"},
      {"measurement": "duration of pain relief", "setting": "[1]", "result": "one or two hours"},
      {"measurement": "pain of oral mucositis", "setting": "[1]; almost immediately after application", "result": "pain was very much reduced"},
      {"measurement": "blocked or stuffy nose", "setting": "[2]; nasal spray 0.5 mg/mL once every two hours during daytime, three days later", "result": "nose became clear and was no longer stuffy"},
      {"measurement": "nasal discomfort during continued radiation therapy", "setting": "[2]; nasal spray 0.5 mg/mL, continuous use", "result": "nasal discomfort did not worsen"},
      {"measurement": "Damage score", "setting": "[3]; 0.25 mg/mL, 0.5 mg/kg oral gavage once per day for 30 days", "result": 24},
      {"measurement": "Damage score", "setting": "[3]; 0.75 mg/mL, 1.5 mg/kg oral gavage once per day for 30 days", "result": 18},
      {"measurement": "effect on gastric bleeding induced by alcohol", "setting": "[3]; 0.5 and 1.5 mg/kg", "result": "may reduce gastric bleeding induced by alcohol"},
      {"measurement": "bleeding of operative wound", "setting": "[4]; [5]", "result": "bleeding had stopped"},
      {"measurement": "pain of operative wound", "setting": "[4]; [5]", "result": "only slight pain was felt"},
      {"measurement": "wound recovery", "setting": "[4]; 0.5 mg/mL spray, one week later (standard care: at least ten days)", "result": "the wound was fully recovered"}
    ]}
  ]
}
